Test results from ChEMBL document CHEMBL6074659, “Development of an Intravenously Stable Disulfide-Rich Peptide for the Treatment of Chemotherapy-Induced Neuropathic Pain” (J Med Chem, 2024).
pIC50: −log10 of the molar value. Calls of active or inactive are those of the source. The calls are words filed in the database; no cut-off is given here. Starred links: 1 amine or outer side, 2 acyl side, 3 side chain; linkers in the order of their positions; H or OH if unused. Positions of bridges follow the written chain, without caps; N, C: chain ends. Non-standard residues stand in square brackets, D forms with d. Residues, ends and D or L forms follow the SMILES beside them. Dap = NC[C@H](N)C(=O)O; CH2 = C([*:1])[*:2]

Experiments:
[1] = biological target: T1, Neuronal acetylcholine receptor; alpha9/alpha10 (Homo sapiens) (UniProt Q9UGM1+Q9GZZ6); assay: Antagonist activity at human alpha9alpha10 nAChR expressed in acetylcholine-induced Xenopus laevis oocytes assessed as inhibition of acetylcholine-induced current at 10 nM at -80 mV holding potential incubated for 5 mins by two electrode voltage-clamp assay; assay type: cell-based; settings: Oocyte, filed as antagonist
[2] = biological target: T1, Neuronal acetylcholine receptor; alpha9/alpha10 (Homo sapiens); assay: Antagonist activity at human alpha9alpha10 nAChR expressed in acetylcholine-induced Xenopus laevis oocytes assessed as inhibition of acetylcholine-induced current at 10 nM at -80 mV holding potential incubated for 5 mins by two electrode voltage-clamp assay relative to control; assay type: cell-based; settings: Oocyte
[3] = Stability in human serum assessed as parent compound remaining incubated at 24 hrs by RP-HPLC analysis; assay type: ADME, cell-free; settings: for remaining at 24 h: human serum, read-out: Stability
[4] = biological target: Neuronal acetylcholine receptor; alpha9/alpha10 (Homo sapiens, UniProt Q9GZZ6+Q9UGM1); assay: Antagonist activity at human alpha9alpha10 nAChR expressed in acetylcholine-induced Xenopus laevis oocytes assessed as inhibition of acetylcholine-induced current at -80 mV holding potential incubated for 5 mins by two electrode voltage-clamp assay; assay type: cell-based, Oocyte
Neuronal acetylcholine receptor; alpha9/alpha10, sequence (Q9UGM1 whole entry): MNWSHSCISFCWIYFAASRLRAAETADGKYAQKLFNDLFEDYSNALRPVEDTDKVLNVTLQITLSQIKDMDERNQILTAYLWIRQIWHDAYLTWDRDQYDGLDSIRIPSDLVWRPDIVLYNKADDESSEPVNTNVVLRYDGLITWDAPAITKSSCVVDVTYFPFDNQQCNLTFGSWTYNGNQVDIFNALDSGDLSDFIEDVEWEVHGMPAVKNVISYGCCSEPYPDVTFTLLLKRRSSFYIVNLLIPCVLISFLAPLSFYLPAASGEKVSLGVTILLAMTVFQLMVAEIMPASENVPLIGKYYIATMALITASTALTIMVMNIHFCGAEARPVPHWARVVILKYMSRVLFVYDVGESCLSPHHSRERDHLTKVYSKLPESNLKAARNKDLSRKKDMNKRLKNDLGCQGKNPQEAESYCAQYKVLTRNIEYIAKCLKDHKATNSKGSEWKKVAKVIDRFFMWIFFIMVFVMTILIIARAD
Neuronal acetylcholine receptor; alpha9/alpha10, sequence (Q9GZZ6 whole entry): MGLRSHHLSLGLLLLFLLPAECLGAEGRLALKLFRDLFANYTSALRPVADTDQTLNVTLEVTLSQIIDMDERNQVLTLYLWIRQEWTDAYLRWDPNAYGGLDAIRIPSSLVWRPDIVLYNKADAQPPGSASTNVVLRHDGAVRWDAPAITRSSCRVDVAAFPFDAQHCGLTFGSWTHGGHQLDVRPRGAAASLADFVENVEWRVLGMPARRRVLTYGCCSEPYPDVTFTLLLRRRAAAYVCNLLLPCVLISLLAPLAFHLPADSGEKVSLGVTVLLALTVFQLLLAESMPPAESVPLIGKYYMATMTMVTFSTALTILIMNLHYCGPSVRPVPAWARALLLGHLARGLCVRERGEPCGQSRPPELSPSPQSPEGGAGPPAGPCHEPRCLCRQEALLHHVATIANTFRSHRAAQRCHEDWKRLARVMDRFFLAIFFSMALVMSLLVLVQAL

[5] = Stability in human serum assessed as parent compound remaining incubated measured upto 48 hrs by RP-HPLC analysis; assay type: ADME, cell-free
[6] = Antagonist activity at rat alpha9alpha10 nAChR expressed in acetylcholine-induced Xenopus laevis oocytes assessed as inhibition of acetylcholine-induced current at -80 mV holding potential incubated for 5 mins by two electrode voltage-clamp assay; assay type: cell-based; settings: Oocyte
[7] = Stability in human serum assessed as parent compound remaining incubated at 48 hrs by RP-HPLC analysis; assay type: ADME, cell-free; settings: read-out: Stability

Structure (SMILES)	Activity [1]	inhibition [2] [%]	remaining at 24 h [3] [%]	also measured
CC[C@H](C)[C@@H]1NC(=O)[C@H](CC(=O)O)NC(=O)[C@@H]2CCCN2C(=O)[C@H](CC(N)=O)NC(=O)[C@H](CC(N)=O)NC(=O)[C@H](C(C)C)NC(=O)[C@H](CO)NC(=O)[C@@H]2CSCSC[C@H](NC(=O)CN)C(=O)N[C@@H](CSCSC[C@@H](C(N)=O)NC1=O)C(=O)N[C@@H](CN)C(=O)N[C@@H](Cc1cnc[nH]1)C(=O)N1CCC[C@H]1C(=O)N[C@@H](C)C(=O)N2 (H-GCC[Dap]HPACSVNNPDIC-NH2; linker 2-8, 3-16 via CH2)	Active	–	–	–
CC[C@H](C)[C@@H]1NC(=O)[C@H](CC(=O)O)NC(=O)[C@@H]2CCCN2C(=O)[C@H](CC(N)=O)NC(=O)[C@H](CC(N)=O)NC(=O)[C@H](C(C)C)NC(=O)[C@H](CO)NC(=O)[C@@H]2CSSC[C@@H]3NC(=O)CNC(=O)[C@H](CCC(=O)O)NC(=O)CNC(=O)[C@H](CCC(=O)O)NC(=O)CNC(=O)[C@H](CCC(=O)O)NC(=O)CNC(=O)[C@H](CSSC[C@H](NC3=O)C(=O)N[C@@H](CN)C(=O)N[C@@H](Cc3cnc[nH]3)C(=O)N3CCC[C@H]3C(=O)N[C@@H](C)C(=O)N2)NC1=O (HELM PEPTIDE1{A.C.S.V.N.N.P.D.I.C.G.E.G.E.G.E.G.C.C.[NC[C@H](N[*:1])C(=O)[*:2]].H.P}$PEPTIDE1,PEPTIDE1,2:R3-18:R3|PEPTIDE1,PEPTIDE1,10:R3-19:R3|PEPTIDE1,PEPTIDE1,1:R1-22:R2$$$V2.0)	–	20	57.3	–
CC[C@H](C)[C@@H]1NC(=O)[C@H](CC(=O)O)NC(=O)[C@@H]2CCCN2C(=O)[C@H](CC(N)=O)NC(=O)[C@H](CC(N)=O)NC(=O)[C@H](C(C)C)NC(=O)[C@H](CO)NC(=O)[C@@H]2CSSC[C@@H]3NC(=O)CNC(=O)[C@@H](N)CC(=O)NCC[C@@H](C(N)=O)NC(=O)[C@H](CSSC[C@H](NC3=O)C(=O)N[C@@H](CN)C(=O)N[C@@H](Cc3cnc[nH]3)C(=O)N3CCC[C@H]3C(=O)N[C@@H](C)C(=O)N2)NC1=O (HELM PEPTIDE1{D.G.C.C.[NC[C@H](N[*:1])C(=O)[*:2]].H.P.A.C.S.V.N.N.P.D.I.C.[Dab].[am]}$PEPTIDE1,PEPTIDE1,1:R3-18:R3|PEPTIDE1,PEPTIDE1,3:R3-9:R3|PEPTIDE1,PEPTIDE1,4:R3-17:R3$$$V2.0)	–	–	64.6	inhibition ([2]; filed as antagonist): 90%; pIC50 [4]: 8.48; Stability [5]: Stable
CC[C@H](C)[C@@H]1NC(=O)[C@H](CC(=O)O)NC(=O)[C@@H]2CCCN2C(=O)[C@H](CC(N)=O)NC(=O)[C@H](CC(N)=O)NC(=O)[C@H](C(C)C)NC(=O)[C@H](CO)NC(=O)[C@@H]2CSSC[C@@H]3NC(=O)CNC(=O)[C@@H](N)CC(=O)NC[C@@H](C(N)=O)NC(=O)[C@H](CSSC[C@H](NC3=O)C(=O)N[C@@H](CN)C(=O)N[C@@H](Cc3cnc[nH]3)C(=O)N3CCC[C@H]3C(=O)N[C@@H](C)C(=O)N2)NC1=O (HELM PEPTIDE1{D.G.C.C.[NC[C@H](N[*:1])C(=O)[*:2]].H.P.A.C.S.V.N.N.P.D.I.C.[O=C([C@H](CN[*:3])N[*:1])[*:2]].[am]}$PEPTIDE1,PEPTIDE1,1:R3-18:R3|PEPTIDE1,PEPTIDE1,3:R3-9:R3|PEPTIDE1,PEPTIDE1,4:R3-17:R3$$$V2.0)	–	–	57.3	inhibition ([2]; filed as antagonist): 90%; pIC50 [4]: 8.49; Stability ([3]; serum, 24 h): 72.4%; Stability [5]: Stable
CC[C@H](C)[C@@H]1NC(=O)[C@H](CC(=O)O)NC(=O)[C@@H]2CCCN2C(=O)[C@H](CC(N)=O)NC(=O)[C@H](CC(N)=O)NC(=O)[C@H](C(C)C)NC(=O)[C@H](CO)NC(=O)[C@@H]2CSCSC[C@H](NC(=O)CN)C(=O)N[C@@H](CSSC[C@@H](C(N)=O)NC1=O)C(=O)N[C@@H](CN)C(=O)N[C@@H](Cc1cnc[nH]1)C(=O)N1CCC[C@H]1C(=O)N[C@@H](C)C(=O)N2 (HELM PEPTIDE1{G.C.C.[NC[C@H](N[*:1])C(=O)[*:2]].H.P.A.C.S.V.N.N.P.D.I.C.[am]}|CHEM1{[C([*:1])[*:2]]}$PEPTIDE1,CHEM1,2:R3-1:R1|PEPTIDE1,CHEM1,8:R3-1:R2|PEPTIDE1,PEPTIDE1,3:R3-16:R3$$$V2.0)	Active	–	–	–
CC.CC[C@H](C)[C@@H]1NC(=O)[C@H](CC(=O)O)NC(=O)[C@@H]2CCCN2C(=O)[C@H](CC(N)=O)NC(=O)[C@H](CC(N)=O)NC(=O)[C@H](C(C)C)NC(=O)[C@H](CO)NC(=O)[C@@H]2CSSC[C@H](NC(=O)CN)C(=O)N[C@@H](CSCSC[C@@H](C(N)=O)NC1=O)C(=O)N[C@@H](CN)C(=O)N[C@@H](Cc1cnc[nH]1)C(=O)N1CCC[C@H]1C(=O)N[C@@H](C)C(=O)N2 (HELM PEPTIDE1{G.C.C.[NC[C@H](N[*:1])C(=O)[*:2]].H.P.A.C.S.V.N.N.P.D.I.C.[am]}|CHEM1{[C([*:1])[*:2]]}$PEPTIDE1,PEPTIDE1,2:R3-8:R3|PEPTIDE1,CHEM1,3:R3-1:R1|PEPTIDE1,CHEM1,16:R3-1:R2$$$V2.0)	Active	–	–	–
CC[C@H](C)[C@@H]1NC(=O)[C@H](CC(=O)O)NC(=O)[C@@H]2CCCN2C(=O)[C@H](CC(N)=O)NC(=O)[C@H](CC(N)=O)NC(=O)[C@H](C(C)C)NC(=O)[C@H](CO)NC(=O)[C@@H]2CSSC[C@H](NC(=O)CN)C(=O)N[C@@H](CNC(=O)C[C@@H](C(N)=O)NC1=O)C(=O)N[C@@H](CN)C(=O)N[C@@H](Cc1cnc[nH]1)C(=O)N1CCC[C@H]1C(=O)N[C@@H](C)C(=O)N2 (HELM PEPTIDE1{G.C.[O=C([C@H](CN[*:3])N[*:1])[*:2]].[NC[C@H](N[*:1])C(=O)[*:2]].H.P.A.C.S.V.N.N.P.D.I.D.[am]}$PEPTIDE1,PEPTIDE1,2:R3-8:R3|PEPTIDE1,PEPTIDE1,3:R3-16:R3$$$V2.0)	–	< 5	57.3	–
CC[C@H](C)[C@@H]1NC(=O)[C@H](CC(=O)O)NC(=O)[C@@H]2CCCN2C(=O)[C@H](CC(N)=O)NC(=O)[C@H](CC(N)=O)NC(=O)[C@H](C(C)C)NC(=O)[C@H](CO)NC(=O)[C@@H]2CSSC[C@H](NC(=O)CN)C(=O)N[C@H](C(=O)N[C@@H](CN)C(=O)N[C@@H](Cc3cnc[nH]3)C(=O)N3CCC[C@H]3C(=O)N[C@@H](C)C(=O)N2)C(C)(C)SSC[C@@H](C(N)=O)NC1=O (HELM PEPTIDE1{G.C.[Pen].[NC[C@H](N[*:1])C(=O)[*:2]].H.P.A.C.S.V.N.N.P.D.I.C.[am]}$PEPTIDE1,PEPTIDE1,2:R3-8:R3|PEPTIDE1,PEPTIDE1,3:R3-16:R3$$$V2.0)	–	–	80	inhibition ([2]; filed as antagonist): 50%; pIC50 [4]: 8.00; pIC50 [6]: 8.57; remaining at 48 h [7]: 60%
CC[C@H](C)[C@@H]1NC(=O)[C@H](CC(=O)O)NC(=O)[C@@H]2CCCN2C(=O)[C@H](CC(N)=O)NC(=O)[C@H](CC(N)=O)NC(=O)[C@H](C(C)C)NC(=O)[C@H](CO)NC(=O)[C@@H]2CSSC[C@@H]3NC(=O)CNC(=O)[C@@H](N)CCCCNC(=O)CC[C@@H](C(N)=O)NC(=O)[C@H](CSSC[C@H](NC3=O)C(=O)N[C@@H](CN)C(=O)N[C@@H](Cc3cnc[nH]3)C(=O)N3CCC[C@H]3C(=O)N[C@@H](C)C(=O)N2)NC1=O (HELM PEPTIDE1{K.G.C.C.[NC[C@H](N[*:1])C(=O)[*:2]].H.P.A.C.S.V.N.N.P.D.I.C.E.[am]}$PEPTIDE1,PEPTIDE1,1:R3-18:R3|PEPTIDE1,PEPTIDE1,3:R3-9:R3|PEPTIDE1,PEPTIDE1,4:R3-17:R3$$$V2.0)	–	< 40	57.3	–
CC[C@H](C)[C@@H]1NC(=O)[C@H](CC(=O)O)NC(=O)[C@@H]2CCCN2C(=O)[C@H](CC(N)=O)NC(=O)[C@H](CC(N)=O)NC(=O)[C@H](C(C)C)NC(=O)[C@H](CO)NC(=O)[C@@H]2CSSC[C@@H]3NC(=O)CNC(=O)[C@@H](N)CNC(=O)C[C@@H](C(N)=O)NC(=O)[C@H](CSSC[C@H](NC3=O)C(=O)N[C@@H](CN)C(=O)N[C@@H](Cc3cnc[nH]3)C(=O)N3CCC[C@H]3C(=O)N[C@@H](C)C(=O)N2)NC1=O (HELM PEPTIDE1{[N[C@@H](CN[*:3])C(=O)[*:2]].G.C.C.[NC[C@H](N[*:1])C(=O)[*:2]].H.P.A.C.S.V.N.N.P.D.I.C.D.[am]}$PEPTIDE1,PEPTIDE1,1:R3-18:R3|PEPTIDE1,PEPTIDE1,3:R3-9:R3|PEPTIDE1,PEPTIDE1,4:R3-17:R3$$$V2.0)	–	< 5	57.3	–
CC[C@H](C)[C@@H]1NC(=O)[C@H](CC(=O)O)NC(=O)[C@@H]2CCCN2C(=O)[C@H](CC(N)=O)NC(=O)[C@H](CC(N)=O)NC(=O)[C@H](C(C)C)NC(=O)[C@H](CO)NC(=O)[C@@H]2CSSC[C@@H]3NC(=O)CNC(=O)[C@@H](N)CNC(=O)CC[C@@H](C(N)=O)NC(=O)[C@H](CSSC[C@H](NC3=O)C(=O)N[C@@H](CN)C(=O)N[C@@H](Cc3cnc[nH]3)C(=O)N3CCC[C@H]3C(=O)N[C@@H](C)C(=O)N2)NC1=O (HELM PEPTIDE1{[N[C@@H](CN[*:3])C(=O)[*:2]].G.C.C.[NC[C@H](N[*:1])C(=O)[*:2]].H.P.A.C.S.V.N.N.P.D.I.C.E.[am]}$PEPTIDE1,PEPTIDE1,1:R3-18:R3|PEPTIDE1,PEPTIDE1,3:R3-9:R3|PEPTIDE1,PEPTIDE1,4:R3-17:R3$$$V2.0)	–	< 5	57.3	–
CC[C@H](C)[C@@H]1NC(=O)[C@H](CC(=O)O)NC(=O)[C@@H]2CCCN2C(=O)[C@H](CC(N)=O)NC(=O)[C@H](CC(N)=O)NC(=O)[C@H](C(C)C)NC(=O)[C@H](CO)NC(=O)[C@@H]2CSSC[C@@H]3NC(=O)CNC(=O)[C@H](CN)NC(=O)CNC(=O)[C@H](CN)NC(=O)CNC(=O)[C@H](CN)NC(=O)CNC(=O)[C@H](CSSC[C@H](NC3=O)C(=O)N[C@@H](CN)C(=O)N[C@@H](Cc3cnc[nH]3)C(=O)N3CCC[C@H]3C(=O)N[C@@H](C)C(=O)N2)NC1=O (cyclo(ACSVNNPDICG[Dap]G[Dap]G[Dap]GCC[Dap]HP); disulfide 2-18, 10-19)	Active	–	85.2	–
